For this assay, the target named is recombinant CD73 (Homo sapiens (Human), UniProt P21589). As to the kind of experiment: Inhibition of soluble recombinant CD73 enzyme activity (Malachite Green). The format is biochemical. As to conditions: recombinant CD73 0.5 nM, AMP 50 μM, 30 minutes at room temperature. The procedure:
The concentration of inorganic phosphate was determined using a phosphate standard curve.

Drawing on patent US11208414B2, “Ectonucleotidase inhibitors and methods of use thereof” (Calithera Biosciences, Inc., priority 2016, dated 2021), this text covers IC50 for one compound.

The structures appear in SMILES notation.

A word on the IC50: it is the midpoint of a concentration-inhibition curve.

recombinant CD73, sequence (P21589 27-547): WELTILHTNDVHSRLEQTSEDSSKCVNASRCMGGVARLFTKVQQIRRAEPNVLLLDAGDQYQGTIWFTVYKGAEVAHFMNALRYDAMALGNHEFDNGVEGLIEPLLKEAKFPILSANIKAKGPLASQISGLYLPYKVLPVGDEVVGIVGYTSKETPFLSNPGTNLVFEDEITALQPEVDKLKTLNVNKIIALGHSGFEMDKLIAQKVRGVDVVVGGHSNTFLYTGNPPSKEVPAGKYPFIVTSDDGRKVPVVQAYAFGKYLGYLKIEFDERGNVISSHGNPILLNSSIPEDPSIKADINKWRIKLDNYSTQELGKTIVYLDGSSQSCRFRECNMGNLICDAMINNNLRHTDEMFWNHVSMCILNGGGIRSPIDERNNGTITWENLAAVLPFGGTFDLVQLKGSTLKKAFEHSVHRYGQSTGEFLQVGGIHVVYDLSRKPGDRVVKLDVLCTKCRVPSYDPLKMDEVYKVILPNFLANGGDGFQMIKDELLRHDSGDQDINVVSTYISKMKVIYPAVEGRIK

As for `Nc1ncnc2c1ncn2[C@@H]1O[C@H](COC(C(=O)O)C(=O)O)[C@@H](O)C1F` (stereo in doubt) [compound 9, 2-(((2R,3R,4R,5R)-5-(6-amino-9H-purin-9-yl)-4-fluoro-3-hydroxytetrahydrofuran-2-yl)-methoxy)malonic acid], the IC50 is more than 50 µM.
